US20070270464A1, “PRODRUGS OF CURCUMIN ANALOGS” (priority 2006, published 2007)

What was measured:
[1] = Photostability: appearance of aqueous solution under room light; type: physicochemical; settings: EF24-GSH: after 48 hours under room light; EF24: diluted aqueous solution, overnight
[2] = background statement; cited from earlier work
[3] = background statement; cited from earlier work; remark: listed apart in the source
tumor cell growth = settings: background statement; cited from earlier work
[4] = test system: MDA-MB-231 human breast cancer cells; settings: MDA-MB-231 cells, background statement; cited from earlier work
[5] = test system: MDA-MB-435 breast cancer cells; test: Photostability: cytotoxicity of solutions kept under room light, Neutral Red assay; type: cell-based, human; settings: EF24-GSH: 10 mM in sterile water, up to 48 hours under room light, FIG. 3; EF24: diluted aqueous solution, overnight
Procedure: MDA-MB-435 breast cancer cells were seeded at 2×10^4 per well in a 96-well plate with DMEM medium supplemented with 10% FBS, plus antibiotics penicillin and streptomycin. After 24 hours, cells were treated with EF24-GSH in the presence of the above growth medium. EF24-GSH solutions were made fresh at 10 mM with sterile water and placed under room light in clear Eppendorf tubes for 30 min, 24 hours and 48 hours, respectively, before adding to the cells. Cell viability was determined after 48 hours of treatment with EF24-GSH conjugate using the Neutral Red assay.

[6] = test system: DU-145 human prostate cancer cells; settings: DU-145 cells, background statement; cited from earlier work

SMILES: CC(=O)O.O=C1C(=Cc2ccccc2F)CNCC1=Cc1ccccc1F [EF24, 3,5-Bis-(2-fluorobenzylidene)-piperidin-4-one, acetic acid salt]
- colour of the solution under room light [1]: turns dark overnight
- photostability [2]: poor photostability
- water solubility [2]: relatively insoluble in water
- toxicity [3]: relatively little toxicity
- inhibition of tumor cell growth, potency compared with cisplatin (tumor cell growth): higher potency than cisplatin
- cell cycle arrest [4]: G2/M arrest
- cytotoxicity after exposure of the solution to room light [5]: severely compromised
- cell cycle arrest [6]: G2/M arrest
